9 compounds from US20240158446A1, “CYCLIC COMPOUND HAVING SELECTIVE INHIBITORY ACTION ON KRAS OVER HRAS AND NRAS” (CHUGAI SEIYAKU KABUSHIKI KAISHA, priority 2021, published 2024) can be followed below.

Experiment [1] deals with GDP-bound KRAS wild-type protein (Homo sapiens, UniProt P01116). Description: Binding to KRAS by surface plasmon resonance (SPR), Single Cycle Kinetics. The note with it: GDP-bound KRAS wild-type protein, read-out: KRAS KD.
Experiment [2] has as its target GDP-bound NRAS wild-type protein (Homo sapiens, UniProt P01111). Description: Binding to NRAS by surface plasmon resonance (SPR), Single Cycle Kinetics. As to conditions: for NRAS/KRAS (ratio of KD value for NRAS to KD value for KRAS): SPR, GDP-bound NRAS wild-type protein vs GDP-bound KRAS wild-type protein; for NRAS/KRAS (ratio of KD value with respect to GDP-bound NRAS wild-type protein to KD value with respect to KRAS): SPR KD ratio NRAS/KRAS, class symbols. Background: Surface plasmon resonance follows binding to a sensor surface in real time, without labels.

The target of experiment [3] is GDP-bound HRAS wild-type protein (Homo sapiens, UniProt P01112). The experiment in a line: Binding to HRAS by surface plasmon resonance (SPR), Single Cycle Kinetics. The note with it: for HRAS/KRAS (ratio of KD value for HRAS to KD value for KRAS): SPR, GDP-bound HRAS wild-type protein vs GDP-bound KRAS wild-type protein; for HRAS/KRAS (ratio of KD value with respect to GDP-bound HRAS wild-type protein to KD value with respect to KRAS): SPR KD ratio HRAS/KRAS, class symbols.
GDP-bound HRAS wild-type protein, sequence (P01112 whole entry): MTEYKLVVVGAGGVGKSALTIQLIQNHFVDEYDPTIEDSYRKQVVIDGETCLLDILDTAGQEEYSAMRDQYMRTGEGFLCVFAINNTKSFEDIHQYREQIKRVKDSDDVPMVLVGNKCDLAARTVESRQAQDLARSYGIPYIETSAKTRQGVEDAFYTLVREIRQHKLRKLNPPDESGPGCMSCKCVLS

In experiment [4] the test system is human lung cancer strain NCI-H441.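 Also: cell proliferation inhibition after four days measured by CellTiter-Glo.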
Setting [5] is: SPR, Single Cycle Kinetics, 1:1 binding model.
Where [6] appears, read: SPR Single Cycle Kinetics, 1:1 binding model.

Like-named read-outs stand apart in the source and are kept apart here.

GDP-bound NRAS wild-type protein, sequence (P01111 whole entry): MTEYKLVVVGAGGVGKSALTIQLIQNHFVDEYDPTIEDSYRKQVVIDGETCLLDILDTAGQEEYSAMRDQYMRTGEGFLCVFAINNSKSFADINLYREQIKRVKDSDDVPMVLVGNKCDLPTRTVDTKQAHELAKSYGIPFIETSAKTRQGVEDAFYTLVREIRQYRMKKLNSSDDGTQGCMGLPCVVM
GDP-bound KRAS wild-type protein, sequence (P01116 whole entry): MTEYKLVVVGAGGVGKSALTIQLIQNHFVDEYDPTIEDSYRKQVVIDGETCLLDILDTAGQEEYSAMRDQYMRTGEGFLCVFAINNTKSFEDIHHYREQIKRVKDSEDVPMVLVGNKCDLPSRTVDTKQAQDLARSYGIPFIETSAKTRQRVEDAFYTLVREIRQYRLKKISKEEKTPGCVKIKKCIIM

In the case of `CCO[C@@H]1C[C@H]2C(=O)NC3(CCC3)C(=O)N(C)[C@@H](C3CCCC3)C(=O)N(C)[C@H](C(=O)N3CCOCC3)CC(=O)N(C)[C@@H](Cc3ccccc3C#N)C(=O)N[C@@H]([C@@H](C)CC)C(=O)N(C)CC(=O)N(C)[C@H]3CCCCCN(C3=O)[C@@H](Cc3ccc(F)cc3)C(=O)N(C)CC(=O)N[C@@H](CCc3cc(F)c(C(F)(F)F)c(F)c3)C(=O)N2C1` [PP1185], the Kd (usually a measure of binding affinity in units of concentration) in experiment [1] (SPR, Single Cycle Kinetics) worked out at 0.5 nM. Also, in experiment [2], the “NRAS/KRAS (ratio of KD value for NRAS to KD value for KRAS)” value is “B (a compound having 3 or more and less than 10 is denoted as B)”. Moreover, the “HRAS/KRAS (ratio of KD value for HRAS to KD value for KRAS)” value in experiment [3] was “B (a compound having 3 or more and less than 10 is denoted as B)”. In experiment [4], half-maximal inhibition (IC50) required 175 nM.

Take `CCO[C@@H]1C[C@H]2C(=O)NC3(CCC3)C(=O)N(C)[C@@H](C(CC)CC)C(=O)N(C)[C@H](C(=O)N(C)C)CC(=O)N(C)[C@@H](CC3CC3)C(=O)N[C@@H]([C@@H](C)CC)C(=O)N(C)CC(=O)N(C)[C@H]3C/C=C\CCN(C3=O)[C@@H](Cc3ccc(C(F)(F)F)cc3)C(=O)N(C)CC(=O)N[C@@H](CCc3ccc(Cl)c(Cl)c3)C(=O)N2C1` [PP1219]: in experiment [1] (setting [5]), the dissociation constant (Kd) was 0.35 nM. Also, in experiment [2] (KD ratio class), the “NRAS/KRAS (ratio of KD value for NRAS to KD value for KRAS)” value is “AA (a compound having 20 or more is denoted as AA)”. The “HRAS/KRAS (ratio of KD value for HRAS to KD value for KRAS)” value in experiment [3] (KD ratio class) is “A (a compound having 10 or more and less than 20 is denoted as A)”. Besides, the concentration for half-maximal inhibition (IC50) (commonly the concentration needed to halve the response being measured) in experiment [4] is 21.4 nM.

As to `CCO[C@@H]1C[C@H]2C(=O)NC3(CCCC3)C(=O)N(C)[C@@H](C3CCCC3)C(=O)N(C)[C@H](C(=O)N3CCOCC3)CC(=O)N(C)[C@@H](CC)C(=O)N[C@@H]([C@@H](C)CC)C(=O)N(C)CC(=O)N(C)[C@H]3C[C@@H](C)[C@@H](C)CN(C3=O)[C@@H](Cc3ccc(C(F)(F)F)cc3)C(=O)N(C)CC(=O)N[C@@H](CCc3cc(F)c(C(F)(F)F)c(F)c3)C(=O)N2C1` [PP1353], the dissociation constant (Kd) in experiment [1] (setting [5]) was determined as 0.1 nM. Further, the “NRAS/KRAS (ratio of KD value for NRAS to KD value for KRAS)” value in experiment [2] (KD ratio class) is “A (a compound having 10 or more and less than 20 is denoted as A)”. In addition, in experiment [3] (KD ratio class), the “HRAS/KRAS (ratio of KD value for HRAS to KD value for KRAS)” value was “B (a compound having 3 or more and less than 10 is denoted as B)”. The compound also came in with a half-maximal inhibitory concentration (IC50) in experiment [4] of 3.7 nM.

In the case of `CCO[C@@H]1C[C@H]2C(=O)NC3(CCCC3)C(=O)N(C)[C@@H](C3CCCC3)C(=O)N(C)[C@H](C(=O)N(C)C)CC(=O)N(C)[C@@H](CC)C(=O)N[C@@H]([C@@H](C)CC)C(=O)N(C)CC(=O)N(C)[C@H]3C/C=C\CCN(C3=O)[C@@H](Cc3ccc(C(F)(F)F)cc3)C(=O)N(C)CC(=O)N[C@@H](CCc3cc(F)c(C(F)(F)F)c(F)c3)C(=O)N2C1` [PP1276, (2S,8S,12R,14S,20S,23S,27S,30S,36S,38Z)-20-cyclopentyl-8-[2-[3,5-difluoro-4-(trifluoromethyl)phenyl]ethyl]-12-ethoxy-27-ethyl-N,N,4,19,22,26,32,35-octamethyl-30-[(1S)-1-methylpropyl]-3,6,9,15,18,21,25,28,31,34,42-undecaoxo-2-[[4-(trifluoromethyl)phenyl]methyl]spiro[1,4,7,10,16,19,22,26,29,32,35-undecazatricyclo[34.5.1.0^10,14]dotetracont-38-ene-17,1′-cyclopentane]-23-carboxamide], the dissociation constant Kd in experiment [1] (setting [5]) amounted to 0.066 nM. Also, in experiment [2] (KD ratio class), the “NRAS/KRAS (ratio of KD value for NRAS to KD value for KRAS)” value is “A (a compound having 10 or more and less than 20 is denoted as A)”. For the same compound, the “HRAS/KRAS (ratio of KD value for HRAS to KD value for KRAS)” value in experiment [3] (KD ratio class) is “B (a compound having 3 or more and less than 10 is denoted as B)”. The compound also gave an IC50 in experiment [4] of 20.8 nM.

On to `CCO[C@@H]1C[C@H]2C(=O)NC3(CCC3)C(=O)N(C)[C@@H](C(CC)CC)C(=O)N(C)[C@H](C(=O)N(C)C)CC(=O)N(C)[C@@H](CC(C)C)C(=O)N[C@@H]([C@@H](C)CC)C(=O)N(C)CC(=O)N(C)[C@H]3C/C=C\CCN(C3=O)[C@@H](Cc3ccc(C(F)(F)F)cc3)C(=O)N(C)CC(=O)N[C@@H](CCc3ccc(C(F)(F)F)c(OC)c3)C(=O)N2C1` [PP1209], for which the Kd in experiment [1] (setting [5]) worked out at 0.22 nM. The “NRAS/KRAS (ratio of KD value for NRAS to KD value for KRAS)” value in experiment [2] (KD ratio class) is on record as “AA (a compound having 20 or more is denoted as AA)”. Moreover, the “HRAS/KRAS (ratio of KD value for HRAS to KD value for KRAS)” value in experiment [3] (KD ratio class) was “A (a compound having 10 or more and less than 20 is denoted as A)”. The compound further gave an IC50 in experiment [4] of 15.9 nM.

For `CCC[C@H]1C(=O)N[C@@H]([C@@H](C)CC)C(=O)N(C)CC(=O)N(C)[C@H]2C/C=C\CCN(C2=O)[C@@H](CC2CCCCC2)C(=O)N(C)CC(=O)N[C@@H](CCc2cc(F)c(C(F)(F)F)c(F)c2)C(=O)N2C[C@H](OCC)C[C@H]2C(=O)NC2(CCC2)C(=O)N(C)[C@@H](C2CCCC2)C(=O)N(C)[C@H](C(=O)N(C)C)CC(=O)N1C` [PP1464], the Kd in experiment [1] (setting [5]) was found to be 0.15 nM. Also, the “NRAS/KRAS (ratio of KD value for NRAS to KD value for KRAS)” value in experiment [2] (KD ratio class) was “A (a compound having 10 or more and less than 20 is denoted as A)”. In addition, the “HRAS/KRAS (ratio of KD value for HRAS to KD value for KRAS)” value in experiment [3] (KD ratio class) was “A (a compound having 10 or more and less than 20 is denoted as A)”. In addition, the half-inhibitory concentration (IC50) in experiment [4] worked out at 32.3 nM.

Take `CCC(CC)[C@H]1C(=O)N(C)[C@H](C(=O)N(C)C)CC(=O)N(C)[C@@H](COC)C(=O)N[C@@H]([C@@H](C)CC)C(=O)N2CCC[C@H]2C(=O)N(C)[C@H]2C/C=C\CCN(C2=O)[C@@H](Cc2ccc(C(F)F)cc2)C(=O)N(C)CC(=O)N[C@@H](CCc2ccc(Cl)c(Cl)c2)C(=O)N2C[C@H](OC3CCCC3)C[C@H]2C(=O)NC2(CC(C)(C)C2)C(=O)N1C` [PP2652]: the dissociation constant (Kd) in experiment [1] (setting [6]) was determined as 1.5 nM. Besides, the “NRAS/KRAS (ratio of KD value with respect to GDP-bound NRAS wild-type protein to KD value with respect to KRAS)” value in experiment [2] is given as “AA (a compound having 20 or more is denoted as AA)”. Further, the “HRAS/KRAS (ratio of KD value with respect to GDP-bound HRAS wild-type protein to KD value with respect to KRAS)” value in experiment [3] was “A (a compound having 10 or more and less than 20 is denoted as A)”. This compound also had an IC50 in experiment [4] of 82.7 nM.

Take `CC[C@H](C)[C@@H]1NC(=O)[C@H](CC)N(C)C(=O)C[C@@H](C(=O)N(C)C)N(C)C(=O)[C@H](C2CCCC2)N(C)C(=O)C2(CCC2)NC(=O)[C@@H]2CCCN2C(=O)[C@H](CCc2cc(F)c(C(F)(F)F)c(F)c2)NC(=O)CN(C)C(=O)[C@H](CC2CCC(F)(F)CC2)N2CC/C=C\C[C@@H](C2=O)N(C)C(=O)CN(C)C1=O` [PP1461]: in experiment [1] (setting [5]), the Kd is 0.27 nM. Moreover, in experiment [2] (KD ratio class), the “NRAS/KRAS (ratio of KD value for NRAS to KD value for KRAS)” value was “A (a compound having 10 or more and less than 20 is denoted as A)”. Besides, in experiment [3] (KD ratio class), the “HRAS/KRAS (ratio of KD value for HRAS to KD value for KRAS)” value is “A (a compound having 10 or more and less than 20 is denoted as A)”. Moreover, in experiment [4], the IC50 amounted to 121 nM.

On to `CCC[C@H]1C(=O)N[C@@H]([C@@H](C)CC)C(=O)N(C)CC(=O)N(C)[C@H]2C/C=C\CCN(C2=O)[C@@H](Cc2ccc(C(F)F)cc2)C(=O)N(C)CC(=O)N[C@@H](CCc2ccc(Cl)c(Cl)c2)C(=O)N2C[C@H](OCC)C[C@H]2C(=O)NC2(CC(C)(C)C2)C(=O)N(C)[C@@H](C(CC)CC)C(=O)N(C)[C@H](C(=O)N(C)C)CC(=O)N1C` [PP2531], for which, in experiment [1] (setting [6]), the dissociation constant (Kd) amounted to 0.51 nM. Besides, the “NRAS/KRAS (ratio of KD value with respect to GDP-bound NRAS wild-type protein to KD value with respect to KRAS)” value in experiment [2] is “AA (a compound having 20 or more is denoted as AA)”. For the same compound, the “HRAS/KRAS (ratio of KD value with respect to GDP-bound HRAS wild-type protein to KD value with respect to KRAS)” value in experiment [3] is “A (a compound having 10 or more and less than 20 is denoted as A)”. The same compound gave a 50% inhibitory concentration (IC50) in experiment [4] of 16.3 nM.
